# According to PubChem BioAssay (NCI):
# Several values for one entry are separate records, joined by “and”; a condition that tells them apart may be missing. Equal values may be shown once.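 Compound exposure: 48 hours, 5 concentrations, 96-well plates. Here, GI50 denotes the concentration required for 50% inhibition of growth. At the TGI there is no net growth.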
# Key:
# Assay in all cases: NCI tumour cell line growth inhibition, 48 h
# [1] = system: MOLT-4 leukemia
# [2] = system: OVCAR-3 ovarian
# [3] = system: UO-31 renal
# [4] = system: U251 CNS
# [5] = system: K-562 leukemia
# [6] = system: SNB-19 CNS
# [7] = system: M14 melanoma
# [8] = system: SK-MEL-2 melanoma
# [9] = system: SF-268 CNS
# [10] = system: SF-295 CNS
SMILES,TGI [1],TGI [2],TGI [3],TGI [4],TGI [5],TGI [6],TGI [7],TGI [8],TGI [9],TGI [10],GI50 [1],GI50 [2],GI50 [3],GI50 [4],GI50 [5],GI50 [6],GI50 [7],GI50 [8],GI50 [9],GI50 [10]
COc1ccc(O)c2c1C(=O)CCCC2=O,> 100 µM,> 100 µM,> 100 µM,> 100 µM,> 100 µM,> 100 µM,> 100 µM,> 100 µM,> 100 µM,> 100 µM,,,,,,,,,,
CCc1cccc(C)c1NC(=O)NS(=O)(=O)c1ccc(C)cc1,> 100 µM,> 100 µM,> 100 µM,> 100 µM,> 100 µM,> 100 µM,> 100 µM,> 100 µM,> 100 µM,> 100 µM,,,,,,,,,,
COc1ccc(NC(=O)C(=O)C2NC(=S)NC2=O)c(OC)c1 (stereo not given),> 100 µM,> 100 µM,> 100 µM,> 100 µM,> 100 µM,> 100 µM,> 100 µM,> 100 µM,> 100 µM,> 100 µM,,,,,,,,,,
Cc1cc(C)nc(NS(=O)(=O)c2ccc(NC(=O)c3cccc4cc5ccccc5nc34)cc2)n1,> 100 µM,65.3 µM,> 100 µM,> 100 µM,> 100 µM,90.7 µM,51.4 µM,85.6 µM,> 100 µM,> 100 µM,,,,,,,,,,
COC(=O)C1=C(C(=O)OC)C2(C(=O)OC)OC1(OC)C(C1(C(=O)OC)C(C(=O)OC)=C1C(=O)OC)=C2C(=O)OC (stereo not given),> 100 µM,> 100 µM,> 100 µM,> 100 µM,> 100 µM,> 100 µM,> 100 µM,> 100 µM,> 100 µM,> 100 µM,,,,,,,,,,
O=C(/C=C\c1ccnc2ccccc12)c1ccc([N+](=O)[O-])cc1,> 83 µM,43.2 µM,> 50.7 µM,41.6 µM,18 µM,> 68.3 µM,19.4 µM,> 100 µM,> 82.8 µM,> 100 µM,4210 nM,7.23 µM,4990 nM,10.6 µM,2.47 µM,14.8 µM,4.94 µM,> 100000 nM,21.6 µM,23.4 µM
Cc1cc(C)c(C(=O)OC(c2ccccc2)C(c2ccccc2)N2CCOCC2)c(C)c1 (stereo not given),> 100 µM,> 100 µM,> 100 µM,> 100 µM,> 100 µM,> 100 µM,> 100 µM,> 100 µM,> 100 µM,> 100 µM,,,,,,,,,,
COc1ccc(C(Nc2ncccn2)c2cc3c(cc2O)OCO3)cc1 (stereo not given),82 µM,32.7 µM,34.4 µM,28.7 µM,> 100 µM,31.1 µM,39.4 µM,46.9 µM,38.4 µM,> 100 µM,,,,,,,,,,
CC#CC(=O)N1CCC[C@H]1c1nc(-c2ccc(C(=O)Nc3ccccn3)cc2)c2c(N)nccn12,> 100 µM,> 100 µM,> 100 µM,> 100 µM,> 100 µM,> 100 µM,> 100 µM,> 100 µM,> 100 µM,> 100 µM,44300 nM,37.2 µM,32100 nM,> 92.4 µM,> 88.2 µM,> 79.9 µM,56.5 µM,> 88400 nM,52.7 µM,> 86.1 µM
C#Cc1ccc(NC(=O)c2ccc(/C=C/C(=O)c3nccn3C)cc2)cc1,1.54 µM,0.792 µM,0.677 µM,0.757 µM,6.55 µM,1.35 µM,0.96 µM,6.68 µM,4.5 µM,1.25 µM,582 nM,0.416 µM,346 nM,0.347 µM,0.136 µM,0.512 µM,0.47 µM,1630 nM,0.76 µM,0.537 µM
O=Nc1c(O)ccc2ccccc12,28.6 µM,9.15 µM,4.79 µM,5.52 µM,16.8 µM,28.2 µM,3.84 µM,4.36 µM,10.6 µM,24.4 µM,3580 nM,2.55 µM,1100 nM,2.17 µM,3.49 µM,14.7 µM,1.92 µM,2120 nM,3.04 µM,11.7 µM
O=[N+]([O-])c1ccccc1C1N2CCCCC2[C@@H]2c3[nH]c4ccccc4c3CCN12 (stereo not given in full),28.1 µM,63.3 µM,23.5 µM,31.3 µM,14 µM,33.4 µM,26.7 µM,26.5 µM,27.4 µM,29.8 µM,,,,,,,,,,
O=C1C2=C(c3ccccc31)C(c1ccccc1Cl)N1C(=O)CSC1=N2 (stereo not given),> 100 µM,> 100 µM,> 100 µM,> 100 µM,> 100 µM,> 100 µM,> 100 µM,> 100 µM,> 100 µM,> 100 µM,,,,,,,,,,
Cc1nc(NC(=O)N2CCC[C@H]2C(N)=O)sc1-c1ccnc(C(C)(C)C(F)(F)F)c1,28.2 µM and > 10 µM,30.7 µM and > 10 µM,36.7 µM and > 10 µM,18.7 µM and > 10 µM,> 100 µM,66.2 µM and > 10 µM,> 82 µM,24.1 µM and > 10 µM,> 86.5 µM,16 µM and > 10 µM,2490 nM and 2940 nM,4.16 µM and 8 µM,2480 nM and 2070 nM,3.22 µM and 5.54 µM,28.1 µM and > 10 µM,8.6 µM and > 10 µM,8.75 µM and > 10 µM,6940 nM and > 10000 nM,9.71 µM and 9.76 µM,2.79 µM and 4.1 µM
C[C@@H]1CC[C@@]2(OC1)O[C@H]1C[C@H]3[C@@H]4CC=C5C[C@@H](O[C@@H]6O[C@H](CO)[C@@H](O[C@@H]7O[C@@H](CO)[C@H](O)[C@H]7O)[C@H](O)[C@H]6O[C@@H]6O[C@@H](C)[C@H](O)[C@@H](O)[C@H]6O)CC[C@]5(C)[C@H]4CC[C@]3(C)[C@H]1[C@@H]2C,2.26 µM,3.12 µM,2.55 µM,2.17 µM,2.64 µM,2.45 µM,2.07 µM,3.04 µM,2.47 µM,3.11 µM,,1.75 µM,1280 nM,1.01 µM,0.873 µM,1.21 µM,,1670 nM,1.21 µM,1.71 µM
COc1ccc(C(O)c2cc3c(N)c(C(=O)Nc4cccc(Br)c4)sc3nc2C)cc1 (stereo not given),> 52.8 µM,0.322 µM,> 31.3 µM,> 41.1 µM,> 100 µM,> 100 µM,14.1 µM,> 21.9 µM,> 32.6 µM,> 31.7 µM,140 nM,0.0949 µM,271 nM,0.119 µM,0.107 µM,0.159 µM,0.0318 µM,572 nM,0.29 µM,0.11 µM
O=c1[nH]c(=S)[nH]c(O)c1/C=C1\C=CC=N1,44.3 µM,21.8 µM,31.2 µM,89.2 µM,> 100 µM,> 100 µM,54.8 µM,51.4 µM,55.1 µM,82.4 µM,,,,,,,,,,
COc1cc(Br)c(CC2=NCCc3cc(OC)c(OC)cc32)cc1OC,72.5 µM,> 100 µM,95.1 µM,> 100 µM,> 100 µM,> 100 µM,65.8 µM,> 100 µM,> 100 µM,> 100 µM,,,,,,,,,,
COc1cccc(C2C(C(=O)Nc3cc(=O)n(C)c(=O)n3C)=C(C)NC(C)=C2C(=O)Nc2cc(=O)n(C)c(=O)n2C)c1O,> 100 µM,> 100 µM,> 100 µM,> 100 µM,> 100 µM,> 100 µM,> 100 µM,> 100 µM,> 100 µM,> 100 µM,,,,,,,,,,
Fc1ccc(-c2ncn(C3CCNCC3)c2-c2ccnc(Oc3cccc(F)c3)n2)cc1,> 25 µM,> 25 µM,> 25 µM,> 25 µM,16.5 µM,> 25 µM,10.5 µM,> 25 µM,> 25 µM,> 25 µM,12700 nM,> 20.9 µM,6770 nM,9.74 µM,6.7 µM,> 25 µM,5.26 µM,> 25000 nM,> 23.3 µM,12.4 µM
Cc1ccc(Nc2ccc(Nc3ccc(C)cc3)c3c2C(=O)c2c(O)ccc(O)c2C3=O)cc1,> 100 µM,> 100 µM,> 100 µM,> 100 µM,> 100 µM,> 100 µM,> 100 µM,> 100 µM,> 100 µM,> 100 µM,,,,,,,,,,
CN(Cc1cnc2nc(N)nc(N)c2n1)c1ccc(C(=O)NC(CCC(=O)O)C(=O)O)cc1 (stereo not given),> 100 µM,> 100 µM,> 100 µM,> 100 µM,> 100 µM,> 100 µM,> 100 µM,> 100 µM,> 100 µM,36.5 µM,389 nM,1.23 µM,270 nM,0.435 µM,,,0.0777 µM,,0.247 µM,0.175 µM
C=C(C)C1/C=C(/C(C)C)CC[C@]2(C)O[C@@H]2CC[C@H](C)CC1=O (stereo not given in full),> 100 µM,81.1 µM,98.1 µM,> 100 µM,> 100 µM,> 100 µM,> 100 µM,> 100 µM,> 100 µM,> 100 µM,> 100000 nM,25.4 µM,28600 nM,54.7 µM,33 µM,> 100 µM,49.6 µM,> 100000 nM,> 100 µM,71.4 µM
